# Legend:
# Type in all cases: in vivo
# [1] = tested on: monocotyledonous and dicotyledonous weeds; experiment: Post-emergence herbicidal action (greenhouse pot test); conditions: post-emergence method; application rate of 0.5 kg or less of active substance per hectare; scored after approx. 3 to 4 weeks; Sinapis alba, Echinochloa crus-galli, Lolium multiflorum, Chrysanthemum segetum, Setaria spp., Abutilon theophrasti, Amaranthus retroflexus, Panicum miliaceum, Avena sativa
# Protocol: Seeds or rhizone pieces of monocotyledonous and dicotyledonous weeds are placed in sandy loam in plastic pots, covered with soil and grown in the greenhouse under good growth conditions. Three weeks after sowing, the test plants are treated at the three-leaf stage. Various dosages of the compounds according to the invention, which are formulated as wettable powders or emulsion concentrates, are sprayed onto the green plant parts at an application rate of 600 to 800 l of water per ha (converted), and after the test plants have been left to stand in the greenhouse for approx. 3 to 4 weeks under optimum growth conditions, the effect of the preparations is scored visually by comparison with untreated controls. The compositions according to the invention also have good herbicidal post-emergence activity against a broad spectrum of economically important weed grasses and broad-leaved weeds.
# [2] = tested on: monocotyledonous and dicotyledonous weed plants; experiment: Pre-emergence herbicidal action (greenhouse pot test); conditions: pre-emergence method; application rate of 0.5 kg and less of active substance per hectare; Sinapis alba, Chrysanthemum segetum, Avena sativa, Stellaria media, Echinochloa crus-galli, Lolium multiflorum, Setaria spp., Abutilon theophrasti, Amaranthus retrofluxus, Panicum miliaceum
# From the text: Seeds or rhizome pieces of monocotyledonous and dicotyledonous weed plants are placed in sandy loam in plastic pots and covered with soil. The compounds according to the invention, which are formulated in the form of wettable powders or emulsion concentrates, are then applied to the surface of the soil cover as aqueous suspension or emulsion at various dosages with an application rate of 600 to 800 l of water/ha (converted).
# After the treatment, the pots are placed into a greenhouse and kept under good growth conditions for the weeds. The plant or emergence damage is scored visually after the untreated controls have emerged. As shown by the test results, the compounds according to the invention have good herbicidal pre-emergence activity against a broad spectrum of weed grasses and broad-leaved weeds.
# [3] = tested on: harmful plants which are typical for rice crops; experiment: Action against harmful plants in rice (paddy rice conditions); conditions: applied to the paddy water; approximately three weeks after application; Cyperus monti, Echinochloa crus-galli, Eleocharis acicularis, Sagittaria pygmaea; note: test concentration or dose not given here
# Protocol: Transplanted and seeded rice and typical rice weeds are grown in the greenhouse until they have reached the three-leaf stage (Echinochloa 1.5-leaves) under paddy rice conditions (flooding level of the water: 2-3 cm) in closed plastic pots. They are then treated with the compounds according to the invention. To this end, the formulated active substances are suspended, dissolved or emulsified in water and applied to the paddy water of the test plants at various dosages by application by pouring.
# After the treatment has been carried out in this way, the test plants are placed into the greenhouse under optimum growth conditions and are kept in this way over the entire experimental period.
# crop plants = experiment: Crop plant tolerance (greenhouse, pre- and post-emergence); conditions: visual scoring four to five weeks after application
# Protocol: In further greenhouse experiments, seeds of a relatively large number of crop plants and weeds are placed in sandy loam and covered with soil. Some of the pots are treated immediately as described in Section 1, while the remaining pots are placed in the greenhouse until the plants have developed two to three real leaves, and they are then sprayed with various dosages of substances of the formula (I) according to invention as described in Section 2. Four to five weeks after the application and standing time in the greenhouse, it is found by means of visual scoring that the compounds according to the invention leave dicotyledonous crops such as, for example, soybeans, cotton, oilseed rape, sugar beet and potatoes unharmed when applied pre- and post-emergence, even at high rates of active compound. In addition, some substances also leave graminaceous crops such as, for example, barley, wheat, rye, sorghum, corn or rice, unharmed.
SMILES,"herbicidal action against harmful plants, scored visually [1]","herbicidal action against harmful plants, scored visually [2]","herbicidal action against harmful plants typical for rice crops, scored visually [3]",selectivity (crop plants versus weeds) (crop plants)
Cc1cc(C)c2c(c1)C(Nc1ncnc(N)n1)CCC2 (stereo not shown) [Example 1],very good herbicidal action,very good herbicidal action,very good herbicidal action,in some cases high selectivity
Cc1cc(C)c2c(c1)C(Nc1ncnc(N)n1)CCO2 (stereo not shown) [Example 4],very good herbicidal action,very good herbicidal action,very good herbicidal action,in some cases high selectivity
Cc1cccc2c1OCCC2Nc1ncnc(N)n1 (stereo not shown) [Example 5],very good herbicidal action,very good herbicidal action,very good herbicidal action,in some cases high selectivity
Cc1ccc2c(c1C)CCCC2Nc1ncnc(N)n1 (stereo not shown) [Example 19],very good herbicidal action,very good herbicidal action,very good herbicidal action,in some cases high selectivity
CC1Cc2cc(F)ccc2C1Nc1ncnc(N)n1 (stereo not shown) [Example 55],very good herbicidal action,very good herbicidal action,very good herbicidal action,in some cases high selectivity
CC1Cc2cc(Cl)ccc2C1Nc1ncnc(N)n1 (stereo not shown) [Example 58],very good herbicidal action,very good herbicidal action,very good herbicidal action,in some cases high selectivity
Cc1cc(C)c2c(c1)C(Nc1ncnc(N)n1)CCS2 (stereo not shown) [Example 79],very good herbicidal action,very good herbicidal action,very good herbicidal action,in some cases high selectivity
Cc1ccc2c(c1)C(Nc1ncnc(N)n1)CC2 (stereo not shown) [Example 146],very good herbicidal action,very good herbicidal action,very good herbicidal action,in some cases high selectivity
Nc1ncnc(NC2CCc3ccccc32)n1 (stereo not shown) [Example 185],very good herbicidal action,very good herbicidal action,very good herbicidal action,in some cases high selectivity
CC1Cc2ccccc2C1Nc1ncnc(N)n1 (stereo not shown) [Example 198],very good herbicidal action,very good herbicidal action,very good herbicidal action,in some cases high selectivity
Cc1ccc2c(c1)C(Nc1ncnc(N)n1)C(C)C2 (stereo not shown) [Example 281],very good herbicidal action,very good herbicidal action,very good herbicidal action,in some cases high selectivity
CC1Cc2ccc(F)cc2C1Nc1ncnc(N)n1 (stereo not shown) [Example 282],very good herbicidal action,very good herbicidal action,very good herbicidal action,in some cases high selectivity
CC(=O)Nc1ncnc(NC2c3cc(F)ccc3CC2C)n1 (stereo not shown) [Example 283],very good herbicidal action,very good herbicidal action,very good herbicidal action,in some cases high selectivity
CC1Cc2ccc(F)cc2C1Nc1ncnc(NC(=O)C(F)(F)F)n1 (stereo not shown) [Example 285],very good herbicidal action,very good herbicidal action,very good herbicidal action,in some cases high selectivity
CC1Cc2ccc(F)cc2C1Nc1ncnc(NC(=O)CCl)n1 (stereo not shown) [Example 286],very good herbicidal action,very good herbicidal action,very good herbicidal action,in some cases high selectivity
Cc1cc(F)cc2c1OCCC2Nc1ncnc(N)n1 (stereo not shown) [Example 288],very good herbicidal action,very good herbicidal action,very good herbicidal action,in some cases high selectivity
Nc1ncnc(NC2CCOc3ccc(F)cc32)n1 (stereo not shown) [Example 289],very good herbicidal action,very good herbicidal action,very good herbicidal action,in some cases high selectivity
Cc1cccc2c1C(Nc1ncnc(N)n1)C(C)C2 (stereo not shown) [Example 290],very good herbicidal action,very good herbicidal action,very good herbicidal action,in some cases high selectivity
CCC1Cc2ccc(C)cc2C1Nc1ncnc(N)n1 (stereo not shown) [Example 291],very good herbicidal action,very good herbicidal action,very good herbicidal action,in some cases high selectivity
